Laboratory results published in US20160297830A1, “NOVEL COMPOUNDS USEFUL FOR THE TREATMENT OF BACTERIAL INFECTIOUS DISEASES” (GALAPAGOS NV, priority 2013, published 2016).
Converted amounts (≈) assume the structure as drawn. Read-outs that look alike come from different tables or passages of the source.

Columns and labels:
[1] = system: H. influenza Hi47 clinical strain, Ampicillin Resistant; experiment: organism not typed; format: cell-based; details: read-out: MIC Hi47
[2] = biological target: DNA Polymerase IIIα (DnaE) from Staphylococcus aureus (Staphylococcus aureus, UniProt Q6GG04); experiment: biochemical
[3] = system: H. influenza Hi3 ATCC 31517; experiment: organism not typed; format: cell-based; details: read-out: MIC Hi3
[4] = system: S. aureus Sa26 ATCC 25923; experiment: Antibacterial activity assay (MIC), S. aureus Sa26; format: cell-based; details: Staphylococcus aureus
[5] = system: Methicillin Resistant S. aureus (MRSA); experiment: Neutropenic mouse thigh infection model; details: Thigh Sa, Study 1; 100 mg/kg IP BID; sample time 7 h PI
[6] = system: S. aureus Sa2 clinical strain NCIMB 41953, MRSA; experiment: microbe, parasite or virus in culture; format: cell-based; details: Staphylococcus aureus, read-out: MIC Sa2
[7] = biological target: DNA III Polymerase E (Escherichia coli, UniProt P10443); experiment: In vitro activity against DNA III Polymerase E, E. coli; format: biochemical
Description: A radioactive filterplate assay was used to assess inhibitory activity of compounds on DNA Polymerase IIIα. Five μL of a dilution series of compound, starting from 100 μM highest concentration, 1/5 dilution, was added to the wells of a 96 well plate. Recombinant enzyme was diluted to 0.47 μg/mL in a buffer containing 20 mM Tris pH7.5, 8 mM DTT, 10 mM MgOAc, 0.05% CHAPS and 10 μL thereof was added to the compound dilutions. The reaction was started with the addition of 10 μL substrate in the same buffer, containing activated calf thymus DNA (Sigma, D4522), dATP, dGTP, dCTP, dTTP (Invitrogen) and [α-33P]-dTTP (Perkin Elmer, NEG605H001) at a concentration of 62.5 μg/mL, 50 nM and 7.5 μCi/mL respectively. The mixture was incubated at 30° C. for 120 minutes and terminated by addition of phosphoric acid. Samples were transferred to filter plates and incorporated radioactivity was measured by the Topcount. Data were converted to percent inhibition with respect to positive and negative controls. IC50 values were calculated using Graph Prism™ software.

[8] = system: E. coli Ec1 ATCC 25922; experiment: Antibacterial activity assay (MIC), E. coli Ec1; format: cell-based; details: Escherichia coli
[9] = system: S. aureus Sa4 NCTC 6571; experiment: Antibacterial activity assay (MIC), S. aureus Sa4; format: cell-based; details: Staphylococcus aureus
[10] = system: S. aureus Sa1 ATCC 13709; experiment: microbe, parasite or virus in culture; format: cell-based; details: Staphylococcus aureus
[11] = system: E. coli Ec50 efflux pump KO; experiment: microbe, parasite or virus in culture; format: cell-based; details: Escherichia coli, read-out: MIC Ec50 efflux pump KO
[12] = system: H. influenza Hi106 ATCC 51907; experiment: organism not typed; format: cell-based; details: read-out: MIC Hi106
[13] = system: E. coli Ec113 efflux pump KO; experiment: microbe, parasite or virus in culture; format: cell-based; details: Escherichia coli, read-out: MIC Ec113 efflux pump KO
[14] = system: H. influenza Hi10 clinical strain; experiment: organism not typed; format: cell-based; details: read-out: MIC Hi10
[15] = ATCC25923, read-out: MIC Sa26 + 10% SH
[16] = ATCC25923, read-out: MIC Sa26 + 50% SH
[17] = DNA polymerase III, E. coli, read-out: IC50 semiquantitative scoring, E. coli
[18] = ATCC25923, read-out: MIC Sa26 + 10% SH, S. aureus Sa26 + 10% SH
[19] = ATCC25923, read-out: MIC Sa26 + 50% SH, S. aureus Sa26 + 50% SH
[20] = ATCC25923, S. aureus Sa26 ATCC 25923, sensitive strain, Mueller-Hinton Broth, 37° C., read-out: MIC Sa26
[21] = ATCC25922, E. coli Ec1 ATCC 25922, sensitive strain, read-out: MIC Ec1
[22] = NCTC6571, S. aureus Sa4 NCTC 6571, sensitive strain, read-out: MIC Sa4
[23] = ATCC13709, S. aureus Sa1 ATCC 13709, sensitive strain, Mueller-Hinton Broth, 37° C., read-out: MIC Sa1

Chain of DNA Polymerase IIIα (DnaE) from Staphylococcus aureus (Q6GG04 1-1022): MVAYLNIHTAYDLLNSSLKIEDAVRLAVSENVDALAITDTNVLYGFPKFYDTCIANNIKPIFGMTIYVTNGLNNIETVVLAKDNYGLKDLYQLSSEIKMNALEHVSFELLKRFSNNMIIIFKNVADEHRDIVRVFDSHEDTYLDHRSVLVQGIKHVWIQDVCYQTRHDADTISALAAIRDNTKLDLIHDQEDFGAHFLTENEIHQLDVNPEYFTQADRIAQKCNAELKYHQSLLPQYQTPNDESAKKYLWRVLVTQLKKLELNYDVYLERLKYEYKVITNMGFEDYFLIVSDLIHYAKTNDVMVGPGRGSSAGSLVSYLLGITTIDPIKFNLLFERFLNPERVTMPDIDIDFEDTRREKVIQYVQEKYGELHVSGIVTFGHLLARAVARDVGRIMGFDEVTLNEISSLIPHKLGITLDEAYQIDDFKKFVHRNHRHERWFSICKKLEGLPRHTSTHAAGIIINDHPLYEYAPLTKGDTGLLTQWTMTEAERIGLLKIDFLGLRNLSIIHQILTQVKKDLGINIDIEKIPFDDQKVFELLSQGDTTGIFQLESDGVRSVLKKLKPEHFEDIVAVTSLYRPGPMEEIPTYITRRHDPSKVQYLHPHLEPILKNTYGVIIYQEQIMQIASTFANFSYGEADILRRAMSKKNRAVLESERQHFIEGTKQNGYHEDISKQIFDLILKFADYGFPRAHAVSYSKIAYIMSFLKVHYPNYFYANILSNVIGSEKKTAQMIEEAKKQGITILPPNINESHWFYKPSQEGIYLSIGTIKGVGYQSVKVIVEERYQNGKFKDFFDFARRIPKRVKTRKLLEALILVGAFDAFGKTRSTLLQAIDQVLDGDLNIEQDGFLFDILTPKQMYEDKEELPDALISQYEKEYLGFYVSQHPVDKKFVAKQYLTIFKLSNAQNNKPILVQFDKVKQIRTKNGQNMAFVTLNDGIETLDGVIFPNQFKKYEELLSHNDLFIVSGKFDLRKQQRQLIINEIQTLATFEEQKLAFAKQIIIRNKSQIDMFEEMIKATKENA
Chain of DNA III Polymerase E (P10443 whole entry): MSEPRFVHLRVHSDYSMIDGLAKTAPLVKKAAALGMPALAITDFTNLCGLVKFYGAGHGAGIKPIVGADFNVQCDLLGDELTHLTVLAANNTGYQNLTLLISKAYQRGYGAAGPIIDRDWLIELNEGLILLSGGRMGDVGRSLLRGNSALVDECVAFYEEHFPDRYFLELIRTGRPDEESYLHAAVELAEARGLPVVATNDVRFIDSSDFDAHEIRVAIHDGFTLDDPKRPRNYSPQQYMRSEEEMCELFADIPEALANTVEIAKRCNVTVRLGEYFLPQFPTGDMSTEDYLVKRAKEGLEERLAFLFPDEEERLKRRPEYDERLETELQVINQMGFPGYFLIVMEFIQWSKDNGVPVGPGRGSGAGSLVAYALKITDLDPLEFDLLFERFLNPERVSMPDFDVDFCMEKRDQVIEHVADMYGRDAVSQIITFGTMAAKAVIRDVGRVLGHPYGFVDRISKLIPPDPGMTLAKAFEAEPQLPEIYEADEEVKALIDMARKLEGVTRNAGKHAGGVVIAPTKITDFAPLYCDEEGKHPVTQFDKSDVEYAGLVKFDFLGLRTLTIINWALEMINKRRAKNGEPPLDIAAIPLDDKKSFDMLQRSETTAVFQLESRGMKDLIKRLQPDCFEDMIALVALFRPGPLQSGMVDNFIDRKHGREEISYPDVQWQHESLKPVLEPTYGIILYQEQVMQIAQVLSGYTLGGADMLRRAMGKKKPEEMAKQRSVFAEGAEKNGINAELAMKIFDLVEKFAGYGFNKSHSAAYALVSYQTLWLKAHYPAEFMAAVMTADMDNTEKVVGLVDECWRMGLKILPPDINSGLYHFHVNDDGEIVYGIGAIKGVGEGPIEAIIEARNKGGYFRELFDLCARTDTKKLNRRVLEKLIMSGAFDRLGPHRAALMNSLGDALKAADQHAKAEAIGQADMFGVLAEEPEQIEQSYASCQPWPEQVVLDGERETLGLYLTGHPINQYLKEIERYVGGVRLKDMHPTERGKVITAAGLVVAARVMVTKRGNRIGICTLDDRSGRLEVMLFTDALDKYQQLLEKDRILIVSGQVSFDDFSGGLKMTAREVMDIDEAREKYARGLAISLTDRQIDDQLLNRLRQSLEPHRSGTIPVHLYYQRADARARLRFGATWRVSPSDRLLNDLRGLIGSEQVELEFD

| SMILES | MIC [1] | IC50 [2] | MIC [3] | MIC ([4]; ATCC25923, read-out: MIC Sa26) | MIC [4, 15] | MIC [4, 16] | MIC [6] | IC50 [7, 17] | MIC ([8]; ATCC25922, read-out: MIC Ec1) | MIC ([9]; NCTC6571, read-out: MIC Sa4) | MIC ([10]; ATCC13709, read-out: MIC Sa1) | MIC [11] | MIC [12] | MIC [13] | MIC [14] | MIC [4, 18] | MIC [4, 19] | MIC [4, 20] | IC50 [7] | MIC [8, 21] | other results |
| --- | --- | --- | --- | --- | --- | --- | --- | --- | --- | --- | --- | --- | --- | --- | --- | --- | --- | --- | --- | --- | --- |
| COC[C@H]1[C@@H](O)[C@@H]2O[C@@]34/C(C)=C/[C@@H](C)[C@@H]([C@H](O)COC)OC(=O)[C@H](COC)[C@H]3C=C[C@@H]2[C@H]4[C@@H]1O [Branimycin, reference compound] | > 64 µg/mL | 2.07 to 2070 nM | > 64 µg/mL | 64 µg/mL (≈ 133 µM) | 64 µg/mL | 64 µg/mL | 64 µg/mL (≈ 133 µM) | 2070 to 20700 nM | > 64 µg/mL | 64 µg/mL (≈ 133 µM) | 64 µg/mL (≈ 133 µM) | 8 µg/mL (≈ 16.6 µM) | > 64 µg/mL | 1 µg/mL (≈ 2.07 µM) | > 64 µg/mL |  |  |  |  |  | Active [5]: N; Log reduction vs. untreated [5]: −0.3 |
| COC[C@@H]1[C@@H](O)[C@@H]2[C@H]3C=C[C@@H]4[C@@H](COC)C(=O)O[C@H]([C@@H](COC)OC)[C@H](C)/C=C(\C)[C@@]24O[C@H]3[C@@H]1OC(=O)c1ccc[nH]1 [Compound 18, 17-O-Methyl-8-O-1H-pyrrole-2′-carbonylbranimycin] | > 64 µg/mL | 1.7 to 1700 nM | > 64 µg/mL | 1 µg/mL (≈ 1.7 µM) | 1 µg/mL | 2 µg/mL | 1 µg/mL (≈ 1.7 µM) | 1700 to 17000 nM | > 64 µg/mL | 1 µg/mL (≈ 1.7 µM) | 1 µg/mL (≈ 1.7 µM) | > 64 µg/mL | > 64 µg/mL | 2 µg/mL (≈ 3.39 µM) | > 64 µg/mL |  |  |  |  |  |  |
| COCC(=O)[C@H]1OC(=O)[C@H](COC)[C@H]2C=C[C@H]3[C@H]4O[C@]2(/C(C)=C/[C@H]1C)[C@@H]3[C@H](O)[C@@H](COC)[C@H]4OC(=O)c1ccc[nH]1 [Compound 20, 18-Deoxy-18-oxo-8-O-1H-pyrrole-2′-carbonylbranimycin] | > 64 µg/mL | 1.74 to 1740 nM | > 64 µg/mL | 8 µg/mL (≈ 13.9 µM) | 16 µg/mL | 32 µg/mL | 2 µg/mL (≈ 3.49 µM) | > 17400 nM | > 64 µg/mL | 4 µg/mL (≈ 6.97 µM) | 8 µg/mL (≈ 13.9 µM) | > 64 µg/mL | > 64 µg/mL | 16 µg/mL (≈ 27.9 µM) | > 64 µg/mL |  |  |  |  |  |  |
| COC[C@@H]1[C@@H](O)[C@@H]2[C@H]3C=C[C@@H]4[C@@H](COC)C(=O)OC[C@H](C)/C=C(\C)[C@@]24O[C@H]3[C@@H]1OC(=O)c1ccc[nH]1 [Compound 22, 17,18-Dinor-8-O-1H-pyrrole-2′-carbonybranimycin] | > 64 µg/mL | 1.99 to 1990 nM | > 64 µg/mL |  |  |  | 4 µg/mL (≈ 7.97 µM) |  |  |  |  | > 64 µg/mL | > 64 µg/mL | 8 µg/mL (≈ 15.9 µM) | > 64 µg/mL | 4 µg/mL | 8 µg/mL | 4 µg/mL (≈ 7.97 µM) | > 19900 nM | > 64 µg/mL | MIC [9, 22]: 2 µg/mL (≈ 3.99 µM); MIC [10, 23]: 4 µg/mL (≈ 7.97 µM) |
| COC[C@@H]1[C@@H](O)[C@@H]2[C@H]3C=C[C@@H]4[C@@H](COC)C(=O)O[C@H](C(C)(O)COC)[C@H](C)/C=C(\C)[C@@]24O[C@H]3[C@@H]1OC(=O)c1ccc[nH]1 (some centres unmarked) [Compound 24, 17-Methyl-8-O-1H-pyrrole-2′-carbonylbranimycin] | > 64 µg/mL | 1.7 to 1700 nM | > 64 µg/mL |  |  |  | 2 µg/mL (≈ 3.39 µM) |  |  |  |  | 1 µg/mL (≈ 1.7 µM) | > 64 µg/mL | 2 µg/mL (≈ 3.39 µM) | > 64 µg/mL | 4 µg/mL | 4 µg/mL | 4 µg/mL (≈ 6.78 µM) | > 17000 nM | > 64 µg/mL | MIC [9, 22]: 2 µg/mL (≈ 3.39 µM); MIC [10, 23]: 4 µg/mL (≈ 6.78 µM) |
